Results from patent US20230049576A1, “GLUTATHIONE-CONTAINING COMPOSITION” (priority 2019, published 2023).

Tests used:
[1] = test system: epidermal permeation barrier; details: previous study, Non-patent Document 2, Patent Document 1; cited from earlier work
thrombin = thrombin (Homo sapiens, UniProt P00734); assay: Measurement of thrombin activity (Rox prothrombin kit, chromogenic substrate, absorbance 405 nm); format: biochemical; details: glutathione 500 μg/ml to 2.5 mg/ml added to 40 ng/ml prothrombin; thrombin activator and substrate added; absorbance 405 nm every 40 seconds; FIG. 1
Protocol: A Rox prothrombin kit (Distributor: Rossix) was used for the measurement of thrombin activity. After glutathione (Distributor: Nacalai Tesque, Inc.) was added to a 40 ng/ml solution of prothrombin (Distributor: Invitrogen) at a concentration of 500 μg/ml to 2.5 mg/ml, the thrombin activator and thrombin substrate included in the kit were added and thrombin activity was measured.

cultured keratinocytes = details: Cryj1 100 ng/ml with glutathione 5 μg/ml
Protocol: Culture keratinocytes (Distributor: Kurabo) were cultured in the EPILIFE-KG2 medium (Distributor: Kurabo) for two days in a humidified atmosphere at 37° C. For the confluent culture, the medium was replaced with EPILIFE-KG2+Ca1.8 mM (Distributor: Kurabo), and then after 28 to 48 hours of incubation, with EPILIFE-KG2 +Cal containing 5 μM of Fura2 AM (Distributor: life technology), following by one hour of culturing. Then, it was replaced with a buffer (pH 7.4) containing NaCl 150 mM, KCI 5 mM, CaCl2 1.8 mM, MgCl2 1.2 mM, HEPES 25 mM, and D-glucose 10 mM, and Cryj1 (Distributor: HAYASHIBARA) was added to the buffer at the concentration of 100 ng/ml alone, or with glutathione (Distributor: Nacalai Tesque, Inc.) (5 μg/ml). Fluorescence was measured with a fluorescence microscope to measure changes in the intracellular calcium concentration.
The value of intracellular calcium concentration about 2 minutes after the addition of Cryj1 was calculated and quantified using the Aqua Cosmos software.

Question: For NC[C@H]1CC[C@H](C(=O)O)CC1 [tranexamic acid], which “delay in thrombin-mediated recovery of the epidermal permeation barrier induced by Cryj1” value [1] is on record?
Answer: The value was “blocks the delay in thrombin-mediated recovery of the epidermal permeation barrier”.

Question: Which results are given for N[C@@H](CCC(=O)N[C@@H](CS)C(=O)NCC(=O)O)C(=O)O [Glutathione, glutathione]?
Answer: thrombin activity (substrate decomposition rate) (thrombin): inhibit thrombin activity in a dose-dependent manner; calcium imaging over time (excitation of fluorescence) (cultured keratinocytes; FIG. 2): suppresses the excitation; intracellular calcium concentration about 2 minutes after the addition of Cryj1 (cultured keratinocytes; FIG. 3): significantly suppresses the calcium response elicited by Cryj1
